Measured values from the NIST ThermoML archive (doi:10.1016/j.jct.2010.11.012).

Assay: xn = mol fraction of the nth substance listed
Details: Liquid, Bellows volumetry

CCCC [butane] + O=C=O
mass density [kg/m3]
Details	280 K	300 K	320 K	340 K	360 K	380 K	400 K	420 K	440 K
3000 kPa, x2 = 0.2322	630.31	–	–	–	–	–	–	–	–
5000 kPa, x2 = 0.2322	633.96	–	575.82	–	–	–	–	–	–
5000 kPa, x2 = 0.4794	680.75	639.52	–	–	–	–	–	–	–
5000 kPa, x2 = 0.715	743.91	–	–	–	–	–	–	–	–
10000 kPa, x2 = 0.2322	642.11	–	589.62	–	527.83	–	446.86	–	–
10000 kPa, x2 = 0.4794	692.87	657.02	616.31	569.54	511.93	–	–	–	–
10000 kPa, x2 = 0.715	764.37	–	634.09	–	–	–	–	–	–
20000 kPa, x2 = 0.2322	656.07	–	611.12	–	561.64	–	507.96	–	450.53
20000 kPa, x2 = 0.4794	712.84	682.52	650.15	616.43	580.87	542.77	502.33	–	–
20000 kPa, x2 = 0.715	794.78	–	700.42	–	589.3	–	–	–	–
30000 kPa, x2 = 0.2322	667.86	–	627.12	–	584.81	–	540.33	–	495.88
30000 kPa, x2 = 0.4794	728.81	701.65	674.04	645.49	616.95	587.13	556.87	526.92	497.45
30000 kPa, x2 = 0.715	817.62	–	738.09	–	653.81	–	566.01	–	–
40000 kPa, x2 = 0.2322	678.47	–	640.44	–	602.48	–	563.25	–	525.21
40000 kPa, x2 = 0.4794	742.52	717.56	692.66	667.35	642.35	616.84	591.24	566.28	541.84
40000 kPa, x2 = 0.715	836.27	–	765.65	–	694.03	–	621.7	–	554.08
50000 kPa, x2 = 0.2322	687.34	–	652.04	–	616.98	–	581.4	–	547.37
50000 kPa, x2 = 0.4794	754.67	731.07	708.18	685.08	662.49	639.71	616.85	595.02	573.48
50000 kPa, x2 = 0.715	852	–	787.84	–	724.09	–	660.78	–	601.28
60000 kPa, x2 = 0.2322	695.74	–	662.33	–	629.59	–	596.43	–	565.31
60000 kPa, x2 = 0.4794	764.81	742.9	721.35	700	679.22	658.27	637.36	617.32	597.98
60000 kPa, x2 = 0.715	866.13	–	806.49	–	747.95	–	690.23	–	637.06
70000 kPa, x2 = 0.2322	703.24	–	671.53	–	640.64	–	609.35	–	580.32
70000 kPa, x2 = 0.4794	774.33	753.65	733.06	713.41	693.75	674.23	654.78	635.97	618.26
70000 kPa, x2 = 0.715	878.47	–	822.63	–	768.11	–	714.95	–	665.83
80000 kPa, x2 = 0.2322	710.1	–	679.91	–	650.47	–	620.59	–	593.42
80000 kPa, x2 = 0.4794	783.23	763.35	744.07	724.94	706.48	687.97	669.8	652.07	635.67
80000 kPa, x2 = 0.715	890.87	–	836.62	–	785.74	–	735.73	–	689.85
90000 kPa, x2 = 0.2322	716.71	–	687.47	–	659.56	–	631	–	605.1
90000 kPa, x2 = 0.4794	791.49	772.13	753.75	735.81	717.86	700.34	682.95	666.23	651.02
90000 kPa, x2 = 0.715	901.14	–	849.86	–	801.06	–	753.9	–	710.59
100000 kPa, x2 = 0.2322	723.23	–	694.73	–	667.72	–	640.36	–	615.81
100000 kPa, x2 = 0.4794	798.9	780.58	762.74	745.33	728.39	711.49	695.05	678.91	664.29
100000 kPa, x2 = 0.715	910.69	–	861.47	–	815.17	–	770.02	–	728.79
120000 kPa, x2 = 0.2322	734.32	–	707.88	–	683.01	–	657.01	–	634.32
120000 kPa, x2 = 0.4794	812.9	795.54	778.9	762.5	747.06	731.12	716.06	701.1	687.84
120000 kPa, x2 = 0.715	928.62	–	882.45	–	839.59	–	797.97	–	759.95
140000 kPa, x2 = 0.2322	744.8	–	719.63	–	695.82	–	671.62	–	650.31
140000 kPa, x2 = 0.4794	825.4	809.12	793	777.74	763.38	748.2	734.23	719.99	707.66
140000 kPa, x2 = 0.715	944.48	–	900.69	–	861.07	–	821.54	–	786.09
160000 kPa, x2 = 0.2322	754.11	–	730.08	–	707.43	–	684.45	–	664.25
160000 kPa, x2 = 0.4794	836.77	820.91	805.87	791.24	777.86	763.43	749.98	736.74	724.96
160000 kPa, x2 = 0.715	958.48	–	917.22	–	878.95	–	841.99	–	808.63
180000 kPa, x2 = 0.2322	762.53	–	739.97	–	718.38	–	696.37	–	676.7
180000 kPa, x2 = 0.4794	847.4	832.12	817.41	803.57	790.57	776.93	764.27	751.63	740.16
180000 kPa, x2 = 0.715	971.36	–	931.83	–	895.71	–	860.22	–	828.38
200000 kPa, x2 = 0.2322	770.7	–	748.41	–	727.81	–	706.63	–	688.15
200000 kPa, x2 = 0.4794	856.48	842.22	828.26	815.1	802.28	789.44	777.01	764.81	754.38
200000 kPa, x2 = 0.715	983.53	–	945.52	–	910.63	–	876.67	–	846.42
